# From US8987195B2 (priority 2012, dated 2015)
# Read-outs that look alike come from different tables or passages of the source.
# Tests used:
# [1] = target: HCV NS3/4A protease genotype 1b (Hepatitis C virus genotype 1b, UniProt P26663); assay: HCV NS3/4A protease time-resolved fluorescence (TRF) assay, Ki against genotype 1b; assay type: biochemical; conditions: IC50 [gt-1b] (nM), NS3/4A genotype 1b, enzyme 0.2 nM
# In short: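 NS3/4A enzyme was preincubated 30 min with inhibitor in 50 mM HEPES pH 7.5, 150 mM NaCl, 15% glycerol, 0.15% Triton X-100, 10 mM DTT, 0.1% PEG 8000; 25 nM europium TRF peptide substrate added, 2.5 h at room temperature. Enzyme: 0.2 nM (1b), 0.4 nM (A156T), 0.025 nM (3a). Ki from IC50 via Cheng-Prusoff.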
# HCV genotype 1b replicon = assay: HCV replicon assay, genotype 1b replicon EC50; assay type: cell-based, Hepatitis C virus; conditions: Hepatitis C virus, genotype 1b replicon, read-out: EC50 [gt-1b]
# In short: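 Potency comes from a four-parameter fit of signal as percent of DMSO control. Replicon-bearing cells were treated 24-48 hours with a compound dilution series in absence of G418, and replicon RNA was quantified normalized to cyclophilin A RNA, or luciferase read.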
SMILES,IC50 [1],EC50 (HCV genotype 1b replicon),IC50 ([1]; K+ salt),EC50 (HCV genotype 1b replicon; K+ salt)
"Cc1nc2ccccc2c2c1O[C@]1(CC2)C[C@H]2C(=O)N[C@]3(C(=O)NS(=O)(=O)C4(C)CC4)C[C@H]3/C=C\CCCCC[C@H](NC(=O)O[C@@H]3C[C@H]4CC[C@@H]3C4)C(=O)N2C1 [Example 179, (1R,2R,4S)-bicyclo[2.2.1]hept-2-yl [(2R,6S,12Z,13aS,14aR,16aS)-5′-methyl-14a-{[(1-methylcyclopropyl)sulfonyl]carbamoyl}-5,16-dioxo-1,1′,2′,5,6,7,8,9,10,11,13a,14,14a,15,16,16a-hexadecahydrospiro[cyclopropa[e]pyrrolo[1,2-a][1,4]diazacyclopentadecine-2,3′-pyrano[2,3-c]quinolin]-6-yl]carbamate]",0.012 nM,0.2 nM,–,–
"Cc1nc2ccc(OC(F)(F)F)cc2c2c1O[C@]1(CC2)C[C@H]2C(=O)N[C@]3(C(=O)NS(=O)(=O)C4(C)CC4)C[C@H]3/C=C\CCCCC[C@H](NC(=O)OC3CCC3)C(=O)N2C1 [Example 180, cyclobutyl [(2R,6S,12Z,13aS,14aR,16aS)-5′-methyl-14a-{[(1-methylcyclopropyl)sulfonyl]carbamoyl}-5,16-dioxo-9′-(trifluoromethoxy)-1,1′,2′,5,6,7,8,9,10,11,13a,14,14a,15,16,16a-hexadecahydrospiro[cyclopropa[e]pyrrolo[1,2-a][1,4]diazacyclopentadecine-2,3′-pyrano[2,3-c]quinolin]-6-yl]carbamate]",0.012 nM,1.72 nM,–,–
"Cc1nc2ccccc2c2c1O[C@]1(CC2)C[C@H]2C(=O)N[C@]3(C(=O)NS(=O)(=O)C4(C)CC4)C[C@H]3/C=C\CCCCC[C@H](NC(=O)O[C@H]3C[C@H]4CC[C@@H]3C4)C(=O)N2C1 [Example 181, (1R,2S,4S)-bicyclo[2.2.1]hept-2-yl [(2R,6S,12Z,13aS,14aR,16aS)-5′-methyl-14a-{[(1-methylcyclopropyl)sulfonyl]carbamoyl}-5,16-dioxo-1,1′,2′,5,6,7,8,9,10,11,13a,14,14a,15,16,16a-hexadecahydrospiro[cyclopropa[e]pyrrolo[1,2-a][1,4]diazacyclopentadecine-2,3′-pyrano[2,3-c]quinolin]-6-yl]carbamate]",0.017 nM,0.39 nM,–,–
"Cc1nc2ccc(Cl)cc2c2c1O[C@]1(CC2)C[C@H]2C(=O)N[C@]3(C(=O)NS(=O)(=O)C4(C)CC4)C[C@H]3/C=C\CCCCC[C@H](NC(=O)OC3CCCC3)C(=O)N2C1 [Example 182, cyclopentyl [(2R,6S,12Z,13aS,14aR,16aS)-9′-chloro-5′-methyl-14a-{[(1-methylcyclopropyl)sulfonyl]carbamoyl}-5,16-dioxo-1,1′,2′,5,6,7,8,9,10,11,13a,14,14a,15,16,16a-hexadecahydrospiro[cyclopropa[e]pyrrolo[1,2-a][1,4]diazacyclopentadecine-2,3′-pyrano[2,3-c]quinolin]-6-yl]carbamate]",–,–,0.009 nM,1.7 nM
"Cc1nc2ccc(Cl)cc2c2c1O[C@]1(CC2)C[C@H]2C(=O)N[C@]3(C(=O)NS(=O)(=O)C4(C)CC4)C[C@H]3/C=C\CCCCC[C@H](NC(=O)OC(C)C)C(=O)N2C1 [Example 183, propan-2-yl [(2R,6S,12Z,13aS,14aR,16aS)-9′-chloro-5′-methyl-14a-{[(1-methylcyclopropyl)sulfonyl]carbamoyl}-5,16-dioxo-1,1′,2′,5,6,7,8,9,10,11,13a,14,14a,15,16,16a-hexadecahydrospiro[cyclopropa[e]pyrrolo[1,2-a][1,4]diazacyclopentadecine-2,3′-pyrano[2,3-c]quinolin]-6-yl]carbamate]",–,–,0.008 nM,1.63 nM
"Cc1nc2ccc(Cl)cc2c2c1O[C@]1(CC2)C[C@H]2C(=O)N[C@]3(C(=O)NS(=O)(=O)C4(C)CC4)C[C@H]3/C=C\CCCCC[C@H](NC(=O)OC3(C)CC3)C(=O)N2C1 [Example 184, 1-methylcyclopropyl [(2R,6S,12Z,13aS,14aR,16aS)-9′-chloro-5′-methyl-14a-{[(1-methylcyclopropyl)sulfonyl]carbamoyl}-5,16-dioxo-1,1′,2′,5,6,7,8,9,10,11,13a,14,14a,15,16,16a-hexadecahydrospiro[cyclopropa[e]pyrrolo[1,2-a][1,4]diazacyclopentadecine-2,3′-pyrano[2,3-c]quinolin]-6-yl]carbamate]",–,–,0.004 nM,4.22 nM
"Cc1nc2ccc(Cl)cc2c2c1O[C@]1(CC2)C[C@H]2C(=O)N[C@]3(C(=O)NS(=O)(=O)C4(C)CC4)C[C@H]3/C=C\CCCCC[C@H](NC(=O)OC3CCC3)C(=O)N2C1 [Example 185, cyclobutyl [(2R,6S,12Z,13aS,14aR,16aS)-9′-chloro-5′-methyl-14a-{[(1-methylcyclopropyl)sulfonyl]carbamoyl}-5,16-dioxo-1,1′,2′,5,6,7,8,9,10,11,13a,14,14a,15,16,16a-hexadecahydrospiro[cyclopropa[e]pyrrolo[1,2-a][1,4]diazacyclopentadecine-2,3′-pyrano[2,3-c]quinolin]-6-yl]carbamate]",–,–,0.005 nM,4.14 nM
"CC1(C)CCCC1OC(=O)N[C@H]1CCCCC/C=C\[C@@H]2C[C@@]2(C(=O)NS(=O)(=O)C2(C)CC2)NC(=O)[C@@H]2C[C@]3(CCc4c(c(C5CC5)nc5c(F)cccc45)O3)CN2C1=O (stereo partly drawn) [Example 187, 2,2-dimethylcyclopentyl [(2R,6S,12Z,13aS,14aR,16aS)-5′-cyclopropyl-7′-fluoro-14a-{[(1-methylcyclopropyl)sulfonyl]carbamoyl}-5,16-dioxo-1,1′,2′,5,6,7,8,9,10,11,13a,14,14a,15,16,16a-hexadecahydrospiro[cyclopropa[e]pyrrolo[1,2-a][1,4]diazacyclopentadecine-2,3′-pyrano[2,3-c]quinolin]-6-yl]carbamate]",0.023 nM,8.33 nM,–,–
"Cc1nc2cc(F)c(F)cc2c2c1O[C@]1(CC2)C[C@H]2C(=O)N[C@]3(C(=O)NS(=O)(=O)C4(C)CC4)C[C@H]3/C=C\CCCCC[C@H](NC(=O)OC(C)(C)C)C(=O)N2C1 [Example 188, tert-butyl [(2R,6S,12Z,13aS,14aR,16aS)-8′,9′-difluoro-5′-methyl-14a-{[(1-methylcyclopropyl)sulfonyl]carbamoyl}-5,16-dioxo-1,1′,2′,5,6,7,8,9,10,11,13a,14,14a,15,16,16a-hexadecahydrospiro[cyclopropa[e]pyrrolo[1,2-a][1,4]diazacyclopentadecine-2,3′-pyrano[2,3-c]quinolin]-6-yl]carbamate]",0.006 nM,3.85 nM,–,–
"Cc1nc2ccc(Cl)cc2c2c1O[C@]1(CC2)C[C@H]2C(=O)N[C@]3(C(=O)NS(=O)(=O)C4(C)CC4)C[C@H]3/C=C\CCCCC[C@H](NC(=O)OC3CCCCC3)C(=O)N2C1 [Example 190, cyclohexyl [(2R,6S,12Z,13aS,14aR,16aS)-9′-chloro-5′-methyl-14a-{[(1-methylcyclopropyl)sulfonyl]carbamoyl}-5,16-dioxo-1,1′,2′,5,6,7,8,9,10,11,13a,14,14a,15,16,16a-hexadecahydrospiro[cyclopropa[e]pyrrolo[1,2-a][1,4]diazacyclopentadecine-2,3′-pyrano[2,3-c]quinolin]-6-yl]carbamate]",–,–,0.009 nM,13.2 nM
"CC1(S(=O)(=O)NC(=O)[C@@]23C[C@H]2/C=C\CCCCC[C@H](NC(=O)OC2(C4CC4)CC2)C(=O)N2C[C@@]4(CCc5c(c(C6CC6)nc6c(F)cccc56)O4)C[C@H]2C(=O)N3)CC1 [Example 191, 1,1′-bi(cyclopropyl)-1-yl [(2R,6S,12Z,13aS,14aR,16aS)-5′-cyclopropyl-7′-fluoro-14a-{[(1-methylcyclopropyl)sulfonyl]carbamoyl}-5,16-dioxo-1,1′,2′,5,6,7,8,9,10,11,13a,14,14a,15,16,16a-hexadecahydrospiro[cyclopropa[e]pyrrolo[1,2-a][1,4]diazacyclopentadecine-2,3′-pyrano[2,3-c]quinolin]-6-yl]carbamate]",0.012 nM,3.59 nM,–,–
"CC(C)(C)COC(=O)N[C@H]1CCCCC/C=C\[C@@H]2C[C@@]2(C(=O)NS(=O)(=O)C2(C)CC2)NC(=O)[C@@H]2C[C@]3(CCc4c(c(C5CC5)nc5c(F)cccc45)O3)CN2C1=O [Example 192, 2,2-dimethylpropyl [(2R,6S,12Z,13aS,14aR,16aS)-5′-cyclopropyl-7′-fluoro-14a-{[(1-methylcyclopropyl)sulfonyl]carbamoyl}-5,16-dioxo-1,1′,2′,5,6,7,8,9,10,11,13a,14,14a,15,16,16a-hexadecahydrospiro[cyclopropa[e]pyrrolo[1,2-a][1,4]diazacyclopentadecine-2,3′-pyrano[2,3-c]quinolin]-6-yl]carbamate]",0.019 nM,9.61 nM,–,–
"Cc1nc2cc(F)c(F)cc2c2c1O[C@]1(CC2)C[C@H]2C(=O)N[C@]3(C(=O)NS(=O)(=O)C4(C)CC4)C[C@H]3/C=C\CCCCC[C@H](NC(=O)OC3CCCC3)C(=O)N2C1 [Example 193, cyclopentyl [(2R,6S,12Z,13aS,14aR,16aS)-8′,9′-difluoro-5′-methyl-14a-{[(1-methylcyclopropyl)sulfonyl]carbamoyl}-5,16-dioxo-1,1′,2′,5,6,7,8,9,10,11,13a,14,14a,15,16,16a-hexadecahydrospiro[cyclopropa[e]pyrrolo[1,2-a][1,4]diazacyclopentadecine-2,3′-pyrano[2,3-c]quinolin]-6-yl]carbamate]",–,–,0.007 nM,31.1 nM
